Results published in patent publication US20020192231A1, “Method of increasing anti-neuGc antibody levels in blood” (Immucom Inc., priority 2001, published 2002).

Experiments:
[1] = tested on: human anti-nonαGal (anti-NeuGc); experiment: Inhibition of human anti-nonαGal binding to pRBC by sialic acids, flow cytometry; conditions: for effect on antibody binding to pRBC: antibodies preincubated with 10 mM sialic acid
Experimental: FIG. 1. Flow cytometry analysis of human anti-nonαGal. The antibodies were incubated with pRBC (type O) at room temperature for 30 min. Anti-human IgG (H+L) conjugated with R-phycoerythrin (PE) was used as a second antibody. (A) The antibodies were bound to untreated (peak 1) or sialidase-treated (peak 2) pRBC. In an inhibition assay, the antibodies were preincubated with NeuAc (peak 3) or NeuGc (peak 4) prior to binding with untreated pRBC. Cells plus the secondary antibody (peak 5) was used as background controls for the flow cytometry. (B) The antibodies were pre-incubated with increasing concentrations of NeuGc (●) or NeuAc (∘) prior to flow cytometry analysis. The percentage of binding (% MFI) was plotted against sialic acid concentrations. Human anti-nonαGal was prepared by depleting anti-αGal from the total xenoreactive antibodies in the serum (31). […] On the other hand, pre-treatment of fresh pRBC with a number of other exoglycosidases (β-galactosidase, α-N-acetylgalactosaminidase and hexosaminidase) had no effect on antibody binding (data not shown). To elucidate the nature of antigens recognized by anti-nonαGal, the antibodies were preincubated with 10 mM NeuGc or NeuAc prior to the binding with pRBC.

[2] = tested on: breast cancer cell line MCF-7; experiment: ECL fluorescence immunoassay on fixed MCF-7 cells; assay type: cell-based; conditions: 30 mM NeuGc
Experimental: More recently, we have succeeded in detecting NeuGc antigen in breast cancer cell line MCF-7 using purified chicken anti-NeuGc antibody. Cells are seeded in chambered slides under cell culture conditions. After growing upto 80%-90% confluence (approximately 2-3 days), cells are gently washed with PBS, pH 7.2, and then fixed in 300 ul methanol for 5 min at room temperature. The chambered slides are blocked with PBS containing 2% BSA prior to the incubation with purified chicken anti-NeuGc in a ECL fluorescence immunoassay. […] Its binding specificity was confirmed by inhibition with 30 mM NeuGc.

[3] = tested on: post-immune IgY; experiment: Inhibition of chicken post-immune IgY binding to pRBC, flow cytometry; conditions: pre-incubation with 3.75 mM NeuGc
Experimental: FIG. 3. Flow cytometry analysis of chicken antibody raised against porcine gangliosides. The antibody sample was incubated with α-galactosidase pRBC (type O) at room temperature for 0.5 hour. Anti-chicken IgG (H+L) conjugated with FITC was used as a second antibody. Cells alone or cells plus the secondary antibody (1) were used as a background control for the flow cytometry (Becton Dickinson). Chicken antibodies (0.1 ul each) prepared from pre-immune eggs (2) and post-immune eggs (3) were analyzed by flow cytometry analysis. Post-immune antibodies were pre-incubated with 3.75 mM NeuGc (4) or 3.75 mg/ml porcine gangliosides (5) prior to the analysis. To examine the effect of ganglioside immunization and level of induced antibodies in eggs, IgY prepared from pre-immune eggs and post-immune eggs were analyzed by flow cytometry analysis using α-galactosidase-treated pRBC. […] We are collecting 20-25 eggs per hen per month.

[4] = tested on: chicken anti-gangliosides; experiment: Inhibition of purified chicken anti-gangliosides binding to pRBC, flow cytometry; conditions: pre-incubation with NeuGc
Experimental: (§1) FIG. 5. Selective inhibition of chicken anti-NeuGc and anti-gangliosides. (A) Prior to flow cytometry analysis, both antibodies were pre-incubated with increased amount of NeuGc. (B) Both antibodies were pre-incubated with increasing amount of porcine gangliosides. To further purify chicken antibodies that bind to the thyroglobulin column, we eluted the column with PBS containing NeuGc, followed by glycine-HCI, pH 2.5. The two resultant fractions are designated as anti-NeuGc and anti-gangliosides, respectively, based on detailed characterization of their binding specificities as described below. Quantitatively, there are roughly ten times more anti-NeuGc than anti-gangliosides activity in the chicken antibodies based on flow cytometry analysis (assuming there are the same amounts of binding sites for both antibodies on pRBC). Both of antibody fractions, anti-NeuGc and anti-gangliosides, derived from further purification of the post-immune IgY bind to pRBC in flow cytometry.

[5] = tested on: chicken anti-NeuGc; experiment: Inhibition of purified chicken anti-NeuGc binding to pRBC, flow cytometry; conditions: at 9.5 mM of NeuGc
Experimental: as §1

inhibition of antibody binding ([1]; NeuAc as high as 6 mM)	effect on antibody binding to pRBC [1]	inhibition of human anti-NeuGc activity by pre-incubation ([1]; anti-NeuGc purified from normal human sera)	inhibition of antibody binding ([1]; at 1.2 mM of NeuGc)	IC50 ([1]; based on mean fluorescent intensity (MFI), read-out: I50 value (concentration that gives rise to 50% inhibition)) [µM]	inhibition of binding activity [3]	maximal inhibition of anti-gangliosides binding [4]	inhibition of anti-NeuGc binding [5]	Structure (SMILES)	inhibition of anti-NeuGc binding to MCF-7 cells [2]
essentially no inhibition	no effect	–	–	–	–	–	–	CC(=O)N[C@H]1[C@H]([C@H](O)[C@H](O)CO)OC(O)(C(=O)O)C[C@@H]1O (stereo partly shown) [NeuAc, N-acetylneuraminic acid]	–
–	strong inhibitory effect	specifically inhibited	Ninety	~73	partially inhibited	approximately 30%	more than 95%	O=C(CO)N[C@H]1[C@H]([C@H](O)[C@H](O)CO)OC(O)(C(=O)O)C[C@@H]1O (stereo partly shown) [NeuGc, N-glycolylneuraminic acid]	inhibition
